From ChEMBL document CHEMBL1158913, “Peroxy Aliphatic Esters from the Sponge Plakortis lita” (1990)

Tested on: P388
Assay: Cytotoxicity against mouse P388 cells
Type: functional
Conditions: read-out: ED50 (the source's name)

Row | Compound | EC50 [µg/mL]
1 | C/C=C/C=C/CCCCCCCCCCC[C@]1(OC)C=C[C@H](CC(=O)OC)OO1 | > 10
2 | CCCCCCCCCCCCCCCC[C@@]1(OC)C=C[C@@H](CC(=O)OC)OO1 [CHONDRILLIN] | > 10
